Results taken from the CheMixHub viscosity set.
± gives the uncertainty stated by the source.

Experiment: xn = mol fraction of the nth substance listed

CC(O)CO (stereo not drawn) + CCO
Details	viscosity [mPa·s]
298.15 K, 101 kPa, x1 = 0.1	1.55 ± 0.041
298.15 K, 101 kPa, x1 = 0.2	2.215 ± 0.06
298.15 K, 101 kPa, x1 = 0.3	3.185 ± 0.086
298.15 K, 101 kPa, x1 = 0.4	4.612 ± 0.13
298.15 K, 101 kPa, x1 = 0.5	6.698 ± 0.18
298.15 K, 101 kPa, x1 = 0.6	9.706 ± 0.27
298.15 K, 101 kPa, x1 = 0.7	14.06 ± 0.4
298.15 K, 101 kPa, x1 = 0.8	20.27 ± 0.59
298.15 K, 101 kPa, x1 = 0.9	30.07 ± 0.89
303 K, 100 kPa, x1 = 0.6	6.734 ± 0.054
308 K, 100 kPa, x1 = 0.6	5.729 ± 0.046
308.15 K, 101 kPa, x1 = 0.1	1.24 ± 0.033
308.15 K, 101 kPa, x1 = 0.2	1.719 ± 0.046
308.15 K, 101 kPa, x1 = 0.3	2.409 ± 0.064
308.15 K, 101 kPa, x1 = 0.4	3.377 ± 0.09
308.15 K, 101 kPa, x1 = 0.5	4.699 ± 0.13
308.15 K, 101 kPa, x1 = 0.6	6.604 ± 0.18
308.15 K, 101 kPa, x1 = 0.7	9.261 ± 0.25
308.15 K, 101 kPa, x1 = 0.8	12.96 ± 0.35
308.15 K, 101 kPa, x1 = 0.9	18.15 ± 0.5
313 K, 100 kPa, x1 = 0.6	5.069 ± 0.039
318 K, 100 kPa, x1 = 0.6	4.427 ± 0.036
318.15 K, 101 kPa, x1 = 0.1	0.9282 ± 0.025
318.15 K, 101 kPa, x1 = 0.2	1.317 ± 0.035
318.15 K, 101 kPa, x1 = 0.3	1.854 ± 0.049
318.15 K, 101 kPa, x1 = 0.4	2.576 ± 0.069
318.15 K, 101 kPa, x1 = 0.5	3.527 ± 0.094
318.15 K, 101 kPa, x1 = 0.6	4.797 ± 0.13
318.15 K, 101 kPa, x1 = 0.7	6.46 ± 0.18
318.15 K, 101 kPa, x1 = 0.8	8.621 ± 0.24
318.15 K, 101 kPa, x1 = 0.9	11.43 ± 0.32

NC1CCCCC1 + CCC(C)=O
298.15 K, 101 kPa
Details	viscosity [mPa·s]
x1 = 0.0747	0.5316 ± 0.0048
x1 = 0.1538	0.6621 ± 0.0057
x1 = 0.2376	0.8418 ± 0.007
x1 = 0.3265	1.042 ± 0.0084
x1 = 0.421	1.235 ± 0.0097
x1 = 0.5217	1.449 ± 0.011
x1 = 0.6291	1.625 ± 0.012
x1 = 0.7441	1.781 ± 0.013
x1 = 0.8674	1.823 ± 0.014
x2 = 0.1326	1.574 ± 0.011
x2 = 0.2559	1.409 ± 0.01
x2 = 0.3708	1.257 ± 0.009
x2 = 0.4783	1.115 ± 0.008
x2 = 0.579	0.978 ± 0.007
x2 = 0.6735	0.846 ± 0.006
x2 = 0.7624	0.719 ± 0.005
x2 = 0.8462	0.599 ± 0.004
x2 = 0.9252	0.481 ± 0.004

CC(O)CO (stereo not drawn) + CCCO
313 K, 101 kPa
Details	viscosity [mPa·s]
x1 = 0.1	1.9 ± 0.1
x1 = 0.3	2.9 ± 0.1
x1 = 0.5	4.8 ± 0.1
x1 = 0.7	8.3 ± 0.2
x1 = 0.9	15 ± 0.4

CC(O)CO (stereo not drawn) + CCCCO
viscosity [mPa·s], 100 kPa
Details	298.15 K	303.15 K	308.15 K	313.15 K	318.15 K	323.15 K
x2 = 0.1	27.93 ± 0.76	21.57 ± 0.57	16.86 ± 0.44	13.38 ± 0.34	10.79 ± 0.27	8.811 ± 0.22
x2 = 0.2	19.65 ± 0.49	15.46 ± 0.38	12.28 ± 0.3	9.943 ± 0.24	8.14 ± 0.19	6.729 ± 0.16
x2 = 0.302	14.18 ± 0.34	11.36 ± 0.27	9.188 ± 0.21	7.539 ± 0.17	6.25 ± 0.14	5.239 ± 0.12
x2 = 0.4	10.82 ± 0.26	8.829 ± 0.21	7.309 ± 0.17	6.057 ± 0.14	5.107 ± 0.12	4.328 ± 0.097
x2 = 0.5	8.015 ± 0.19	6.634 ± 0.16	5.555 ± 0.13	4.699 ± 0.11	–	–
x2 = 0.501	–	–	–	–	3.987 ± 0.092	3.422 ± 0.078
x2 = 0.6	6.068 ± 0.14	5.094 ± 0.12	4.337 ± 0.099	3.686 ± 0.084	–	–
x2 = 0.601	–	–	–	–	3.178 ± 0.071	2.743 ± 0.061
x2 = 0.701	4.884 ± 0.11	4.156 ± 0.094	3.556 ± 0.08	3.057 ± 0.068	2.659 ± 0.059	2.317 ± 0.051
x2 = 0.801	3.858 ± 0.088	3.307 ± 0.075	2.885 ± 0.065	2.514 ± 0.056	2.199 ± 0.049	1.937 ± 0.043
x2 = 0.9	3.102 ± 0.07	2.716 ± 0.061	2.374 ± 0.053	2.078 ± 0.046	–	–
x2 = 0.901	–	–	–	–	1.833 ± 0.04	1.634 ± 0.036
